From patent US20040101578A1, “Compositon containg ginkgo biloba that inhibit angiogenesis and matrix metalloprotinase” (priority 2003, published 2004)

System: human umbilical vein endothelial cells (HUVEC)
Assay: Tube formation of HUVEC grown with Matrigel
Format: cell-based
Settings: for Area of the tube: 50 μM compound in DMSO, DMSO control 88; for Area of the tube %: DMSO control = 100; for inhibition at 50 µM: Homo sapiens, HUVEC, read-out: percent inhibition of the tube formation
Protocol: In order to do the tube formation assay, blood vessel endothelial cells, that Is, human umbilical vein endothellal cells (HUVECs), were isolated. HUVECs were isolated from freshly obtained cords after cesarean section, and they were grown and identified by immunocytochemial staining with anti-Factor Vil antibody. HUVECs grown with Matrigel (BD Bioscience, Bedford, Mass., USA), were treated with 0.4 μg/μl of the above Ginkgo biloba leaf extract (Hwa II Pharmaceutical Co., LTD, Korea) of the EXAMPLE 1, and further incubated at 37° C. for […]. As a control, the procedure was repeated without Ginkgo biloba leaf extract.
The area of the tube was determined by the image analysis program Image-Pro Plus (Media Cybernetics, USA), and as summarized in Table I, tube formation after treatment of Ginkgo biloba leaf extract was inhibited by about 60% as compared with the untreated control.
Representative compounds from Ginkgo biloba, quercetin (Sigma Cat No. Q0125) and kaempferol (Indofine Chemical Cat No. K-102) as flavonoids, amentoflavon (Indofine Chemical Cat No. 021101S) as a biflavonoid and ginkolide A (Sigma Cat No. G4028) as a terpene-lactone, were subjected to the tube formation assay as described in EXAMPLE 1.
Since the above chemicals are not soluble in water, they were dissolved on dimethyl sulfoxide (DMSO), and in order to exclude the effect of solvent for these compounds, HUVECs treated with the same amount of DMSO were used as a control. FIG. 6 is a picture of the 1% DMSO-treated HUVEC control, and FIGS. 7-10 are pictures showing the effect on tube formation of individual compounds (quercetin, kaempferol, amentoflavon, and ginlkolide A, respectively). At 50 μM concentration, the order of inhibitory effect on HUVEC tube formation was quercetin>kaempferol>amentoflavon>ginkgolide A. Ginkgolide A was not effective even at 1 mM concentration.
Therefore, not biflavonoids but flavonoids such as quercetin and kaempferol, are the major component for angiogenesis inhibition in Ginkgo biloba leaf extract.

[1] = 50 μM compound, versus DMSO control

SMILES | Area of the tube | percent inhibition of the tube formation [1] | Area of the tube % (50 μM compound) [%] | effect on HUVEC tube formation (1 mM concentration) | inhibition at 50 µM [1] [%]
O=c1cc(-c2ccc(O)c(-c3c(O)cc(O)c4c(=O)cc(-c5ccc(O)cc5)oc34)c2)oc2cc(O)cc(O)c12 [Amentoflavon, amentoflavon] | 48 | 45 | 55 |  | 
C[C@@H]1C(=O)O[C@H]2C[C@@]34[C@H]5C[C@@H](C(C)(C)C)[C@]36[C@@H](OC(=O)[C@@H]6O)O[C@@]4(C(=O)O5)[C@]21O [Ginkgolide A, ginkolide A] |  |  |  | not effective | 
O=c1c(O)c(-c2ccc(O)cc2)oc2cc(O)cc(O)c12 [Kaempferol, kaempferol] | 24 |  | 27 |  | 73
O=c1c(O)c(-c2ccc(O)c(O)c2)oc2cc(O)cc(O)c12 [Quercetin, quercetin] | 6.6 |  | 7.5 |  | 93
